Test results published in US20250326732A1 (Pretzel Therapeutics, Inc., priority 2021, published 2025).

Each compound was assayed against POLRMT (Homo sapiens (Human), UniProt O00411) (assay: homogeneous TR-FRET assay of mitochondrial transcription (inhibition of POLRMT)). Settings: 7.5 nM POLRMT, 15 nM TFB2M, 30 nM TFAM, 0.5 nM DNA template, 500 μM NTPs, 37° C. for 60 minutes.
Assay type: biochemical
Experimental: The ability of some compounds of the present invention to inhibit POLRMT were determined in a homogeneous TR-FRET Assay using high-throughput screening in a 384-well plate format. […] Detection of the product is facilitated by hybridization of two DNA-oligonucleotide probes to specific and adjacent sequences within the RNA product sequence. Upon annealing of the probes, two fluorophores are coupled directly to an acceptor nucleotide probe (ATTO647, 5′), or introduced via a coupled streptavidin with a biotinylated donor nucleotide probe (Europium cryptate) that is brought into sufficient proximity to serve as a fluorescence-donor-acceptor pair. Thus, a FRET signal at 665 nm is generated upon excitation at 340 nm.
The DNA template is restriction linearized proximal to the promotor 3′-end (pUC-LSP). […] No nucleotide triphosphate mix is added to negative control samples. Microplates with compounds to be tested in the assay are prepared from 10 mM compound stocks in 100% DMSO, equal amounts of DMSO without any compound are added to positive control and negative control samples.
During the incubation, a mix of the detection reagents is prepared in a buffer such that the enzymatic reaction is terminated due to chelating of Mg-ions and increased ionic strength, containing 50 mM Tris-HCl (pH 7.5), 700 mM NaCl, 20 mM EDTA, and 0.01% (w/v) Tween-20. Europium-streptavidin is pre-incubated with a 200-fold molar excess of a random sequence oligonucleotide to block unspecific binding of oligo, for two hours at ambient temperature in the dark. Afterwards, the blocked Europium-streptavidin is kept on ice until use.
At the end of the enzymatic reaction time, 5 μL detection oligo mix in the detection buffer is added, and assay plates are mixed and kept at ambient temperature for one hour, protected from light. The concentration of the Acceptor nucleotide oligo (e.g., ATTO647N-5′-[…]-3′) and Donor nucleotide oligo (e.g., bio-5′-[…](-bio)[…]-bio-3′) in each assay well is 1 nM, and 3 nM, respectively.
After incubation with oligo mix, 5 μL of pre-blocked Europium-streptavidin reagent is dispensed to each assay well, assay plates are again mixed and kept at ambient temperature for one hour, protected from light.
The generated signal is measured with BMG Pherastar microtiter plate reader with a TRF light unit, using excitation at 340 nm, an integration time of 200 μs, and a delay time of 100 μs, before detection at 620 nm and 665 nm. The ratio of donor- and acceptor-fluorescence is used as a measure of the generated transcript product (i.e. enzymatic activity).

POLRMT, sequence (O00411 42-1230): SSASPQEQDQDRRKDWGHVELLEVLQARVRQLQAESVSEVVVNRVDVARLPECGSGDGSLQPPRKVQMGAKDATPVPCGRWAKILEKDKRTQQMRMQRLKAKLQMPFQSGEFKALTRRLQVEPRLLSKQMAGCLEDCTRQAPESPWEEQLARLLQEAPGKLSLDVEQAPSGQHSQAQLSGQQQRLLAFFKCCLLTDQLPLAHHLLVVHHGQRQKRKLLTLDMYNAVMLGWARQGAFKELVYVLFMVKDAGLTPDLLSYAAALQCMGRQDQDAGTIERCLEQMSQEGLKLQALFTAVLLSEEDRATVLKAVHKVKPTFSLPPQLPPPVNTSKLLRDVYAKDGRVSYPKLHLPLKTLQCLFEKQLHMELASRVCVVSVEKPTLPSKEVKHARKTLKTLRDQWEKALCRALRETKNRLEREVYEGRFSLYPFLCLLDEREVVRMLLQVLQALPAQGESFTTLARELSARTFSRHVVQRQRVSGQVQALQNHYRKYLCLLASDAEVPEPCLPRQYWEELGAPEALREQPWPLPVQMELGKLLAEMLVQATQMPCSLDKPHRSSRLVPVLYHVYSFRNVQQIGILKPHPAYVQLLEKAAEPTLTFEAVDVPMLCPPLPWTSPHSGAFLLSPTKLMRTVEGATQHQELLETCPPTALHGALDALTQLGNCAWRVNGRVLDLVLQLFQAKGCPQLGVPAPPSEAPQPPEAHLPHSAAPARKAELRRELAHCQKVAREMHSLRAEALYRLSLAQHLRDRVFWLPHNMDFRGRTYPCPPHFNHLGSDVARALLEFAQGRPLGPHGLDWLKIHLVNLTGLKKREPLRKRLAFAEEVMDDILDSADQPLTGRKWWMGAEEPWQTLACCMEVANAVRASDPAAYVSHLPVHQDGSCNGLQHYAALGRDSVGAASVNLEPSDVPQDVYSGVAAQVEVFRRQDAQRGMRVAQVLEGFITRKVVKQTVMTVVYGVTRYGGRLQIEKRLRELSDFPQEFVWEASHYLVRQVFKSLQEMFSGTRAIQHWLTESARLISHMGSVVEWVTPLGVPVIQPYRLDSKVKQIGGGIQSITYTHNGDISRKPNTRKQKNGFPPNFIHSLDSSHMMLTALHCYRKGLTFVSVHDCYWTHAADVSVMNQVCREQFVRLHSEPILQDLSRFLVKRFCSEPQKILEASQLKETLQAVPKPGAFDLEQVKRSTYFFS

SMILES	IC50
CCOC(=O)[C@@H](C)Nc1ccc2c(-c3ccc(F)cc3Cl)cc(=O)oc2c1 [Example 26, ethyl (4-(2-chloro-4-fluorophenyl)-2-oxo-2H-chromen-7-yl)-D-alaninate]	400 nM
C[C@@H](Nc1ccc2c(-c3ccc(F)cc3Cl)cc(=O)oc2c1)C(=O)N1CCCCC1 [Example 27, (R)-4-(2-chloro-4-fluorophenyl)-7-((1-oxo-1-(piperidin-1-yl)propan-2-yl)amino)-2H-chromen-2-one]	100 nM
C[C@@H](Nc1ccc2c(-c3ccc(F)cc3Cl)cc(=O)oc2c1)C(=O)N(C)C [Example 28, (R)-2-((4-(2-chloro-4-fluorophenyl)-2-oxo-2H-chromen-7-yl)amino)-N,N-dimethylpropanamide]	800 nM
COc1ccccc1-c1cc(=O)oc2cc(NC(=O)C(C)C)ccc12 [Example 30, N-(4-(2-methoxyphenyl)-2-oxo-2H-chromen-7-yl) isobutyramide]	> 100000 nM
CN(C)c1ccc2c(-c3ccc(F)cc3Cl)cc(=O)oc2c1 [Example 31, 4-(2-chloro-4-fluorophenyl)-7-(dimethylamino)-2H-chromen-2-one]	400 nM
O=C(OCc1ccc2c(-c3ccc(F)cc3Cl)cc(=O)oc2c1)N1CCCCC1 [Example 38, (4-(2-chloro-4-fluorophenyl)-2-oxo-2H-chromen-7-yl)methyl piperidine-1-carboxylate]	600 nM
CC(O)c1ccc2c(-c3ccc(F)cc3Cl)cc(=O)oc2c1 (stereo not shown) [Example 40, 4-(2-chloro-4-fluorophenyl)-7-(1-hydroxyethyl)-2H-chromen-2-one]	2000 nM
C[C@H](C(=O)N1CCCCC1)N(C)c1ccc2c(-c3ccc(F)cc3Cl)cc(=O)oc2c1 [Example 45, (R)-4-(2-chloro-4-fluorophenyl)-7-(methyl(1-oxo-1-(piperidin-1-yl)propan-2-yl)amino)-2H-chromen-2-one]	50 nM
C[C@H](C(=O)N(C)C)N(C)c1ccc2c(-c3ccc(F)cc3Cl)cc(=O)oc2c1 [Example 46, (R)-2-((4-(2-chloro-4-fluorophenyl)-2-oxo-2H-chromen-7-yl)(methyl)amino)-N,N-dimethylpropanamide]	50 nM
C[C@@H](Nc1ccc2c(-c3ccc(F)cc3Cl)cc(=O)oc2c1)C(=O)N1CCOCC1 [Example 47, (R)-4-(2-chloro-4-fluorophenyl)-7-((1-morpholino-1-oxopropan-2-yl)amino)-2H-chromen-2-one]	400 nM
CCNC(=O)[C@@H](C)Nc1ccc2c(-c3ccc(F)cc3Cl)cc(=O)oc2c1 [Example 48, (R)-2-((4-(2-chloro-4-fluorophenyl)-2-oxo-2H-chromen-7-yl)amino)-N-ethylpropanamide]	3000 nM
Cc1ccccc1-c1cc(=O)oc2cc(CCC(=O)N3CCCCC3)ccc12 [Example 49, 7-(3-oxo-3-(piperidin-1-yl)propyl)-4-(o-tolyl)-2H-chromen-2-one]	1000 nM
C[C@H](C(=O)N1CCOCC1)N(C)c1ccc2c(-c3ccc(F)cc3Cl)cc(=O)oc2c1 [Example 55, (R)-4-(2-chloro-4-fluorophenyl)-7-(methyl(1-morpholino-1-oxopropan-2-yl)amino)-2H-chromen-2-one]	70 nM
CCNC(=O)[C@@H](C)N(C)c1ccc2c(-c3ccc(F)cc3Cl)cc(=O)oc2c1 [Example 56, (R)-2-((4-(2-chloro-4-fluorophenyl)-2-oxo-2H-chromen-7-yl)(methyl)amino)-N-ethylpropanamide]	200 nM
Cc1ccccc1-c1cc(=O)oc2cc(C(C)CC(=O)N3CCCCC3)ccc12 (stereo not shown) [Example 59, 7-(4-oxo-4-(piperidin-1-yl)butan-2-yl)-4-(o-tolyl)-2H-chromen-2-one]	2000 nM
Cc1ccccc1-c1cc(=O)oc2cc(N[C@@H](CC(C)C)C(=O)OC(C)(C)C)ccc12 [Example 60, tert-butyl (2-oxo-4-(o-tolyl)-2H-chromen-7-yl)-L-leucinate]	8000 nM
Cc1ccccc1-c1cc(=O)oc2cc(N(C)CC(=O)OC(C)(C)C)ccc12 [Example 70, tert-butyl N-methyl-N-(2-oxo-4-(o-tolyl)-2H-chromen-7-yl)glycinate]	40 nM
Cc1ccccc1-c1cc(=O)oc2cc(NCC(=O)N3CCCCC3)ccc12 [Example 72, 7-((2-oxo-2-(piperidin-1-yl)ethyl)amino)-4-(o-tolyl)-2H-chromen-2-one]	3000 nM
Cc1ccccc1-c1cc(=O)oc2cc(N(C)[C@H](C)C(=O)N3CCC[C@H](C(=O)O)C3)ccc12 [Example 75, (S)-1-(N-methyl-N-(2-oxo-4-(o-tolyl)-2H-chromen-7-yl)-D-alanyl)piperidine-3-carboxylic acid]	30 nM

More lines, now with the values ahead:

IC50	SMILES
> 100000 nM	COc1ccccc1-c1cc(=O)oc2cc(NC(C)=O)ccc12 [Example 29, N-(4-(2-methoxyphenyl)-2-oxo-2H-chromen-7-yl)acetamide]
400 nM	CC(=O)Nc1ccc2c(-c3ccccc3C)cc(=O)oc2c1 [Example 32, N-(2-oxo-4-(o-tolyl)-2H-chromen-7-yl)acetamide]
300 nM	Cc1ccccc1-c1cc(=O)oc2cc(NC(=O)C(C)C)ccc12 [Example 33, N-(2-oxo-4-(o-tolyl)-2H-chromen-7-yl) isobutyramide]
2000 nM	Cc1ccccc1-c1cc(=O)oc2cc(C(=O)N(C)C)ccc12 [Example 34, N,N-dimethyl-2-oxo-4-(o-tolyl)-2H-chromene-7-carboxamide]
2000 nM	Cc1ccccc1-c1cc(=O)oc2cc(C(=O)Nc3ccccc3)ccc12 [Example 35, 2-oxo-N-phenyl-4-(o-tolyl)-2H-chromene-7-carboxamide]
2000 nM	Cc1ccccc1-c1cc(=O)oc2cc(C(=O)NC3CCCC3)ccc12 [Example 36, N-cyclopentyl-2-oxo-4-(o-tolyl)-2H-chromene-7-carboxamide]
1000 nM	Cc1ccccc1-c1cc(=O)oc2cc(C(=O)N3CCCCC3)ccc12 [Example 37, 7-(piperidine-1-carbonyl)-4-(o-tolyl)-2H-chromen-2-one]
700 nM	Cc1ccc2c(-c3ccccc3C)cc(=O)oc2c1 [Example 39, 7-methyl-4-(o-tolyl)-2H-chromen-2-one]
13000 nM	Cc1ccccc1-c1cc(=O)oc2cc(C#N)ccc12 [Example 43, 2-oxo-4-(o-tolyl)-2H-chromene-7-carbonitrile]
12000 nM	CC(=O)N(C)c1ccc2c(-c3ccccc3C)cc(=O)oc2c1 [Example 44, N-methyl-N-(2-oxo-4-(o-tolyl)-2H-chromen-7-yl)acetamide]
2000 nM	CCOC(=O)/C(C)=C/c1ccc2c(-c3ccccc3C)cc(=O)oc2c1 [Example 50, ethyl (E)-2-methyl-3-(2-oxo-4-(o-tolyl)-2H-chromen-7-yl)acrylate]
300 nM	CCOC(=O)C(C)Cc1ccc2c(-c3ccccc3C)cc(=O)oc2c1 (stereo not shown) [Example 51, ethyl 2-methyl-3-[4-(o-tolyl)-2-oxo-chromen-7-yl]propanoate]
200 nM	Cc1ccccc1-c1cc(=O)oc2cc(CC(C)C(=O)O)ccc12 (stereo not shown) [Example 52, 2-methyl-3-[4-(o-tolyl)-2-oxo-chromen-7-yl]propanoic acid]
2000 nM	CCOC(=O)/C=C/c1ccc2c(-c3ccccc3C)cc(=O)oc2c1 [Example 53, ethyl (E)-3-(2-oxo-4-(o-tolyl)-2H-chromen-7-yl)acrylate]
900 nM	CCOC(=O)CCc1ccc2c(-c3ccccc3C)cc(=O)oc2c1 [Example 54, ethyl 3-(2-oxo-4-(o-tolyl)-2H-chromen-7-yl)propanoate]
300 nM	COC(=O)/C=C(\C)c1ccc2c(-c3ccccc3C)cc(=O)oc2c1 [Example 57, methyl (E)-3-(2-oxo-4-(o-tolyl)-2H-chromen-7-yl)but-2-enoate]
3000 nM	COC(=O)CC(C)c1ccc2c(-c3ccccc3C)cc(=O)oc2c1 (stereo not shown) [Example 58, methyl 3-(2-oxo-4-(o-tolyl)-2H-chromen-7-yl)butanoate]
900 nM	Cc1ccccc1-c1cc(=O)oc2cc(NCC(=O)OC(C)(C)C)ccc12 [Example 61, tert-butyl (2-oxo-4-(o-tolyl)-2H-chromen-7-yl)glycinate]
6000 nM	Cc1ccccc1-c1cc(=O)oc2cc(NCC(=O)O)ccc12 [Example 71, (2-oxo-4-(o-tolyl)-2H-chromen-7-yl)glycine]
3000 nM	Cc1ccccc1-c1cc(=O)oc2cc(N[C@@H](CC(C)C)C(=O)O)ccc12 [Example 73, (2-oxo-4-(o-tolyl)-2H-chromen-7-yl)-L-leucine]
700 nM	COC(C)c1ccc2c(-c3ccccc3C)cc(=O)oc2c1 (stereo not shown) [Example 74, 7-(1-methoxyethyl)-4-(o-tolyl)-2H-chromen-2-one]
